Results reported in patent US9765075B2, “Substituted bridged urea analogs as sirtuin modulators” (GLAXOSMITHKLINE LLC, priority 2013, dated 2017).

Molecular target: T1, SIRT1 (Homo sapiens, UniProt Q96EB6)
T1 sequence (Q96EB6 1-747): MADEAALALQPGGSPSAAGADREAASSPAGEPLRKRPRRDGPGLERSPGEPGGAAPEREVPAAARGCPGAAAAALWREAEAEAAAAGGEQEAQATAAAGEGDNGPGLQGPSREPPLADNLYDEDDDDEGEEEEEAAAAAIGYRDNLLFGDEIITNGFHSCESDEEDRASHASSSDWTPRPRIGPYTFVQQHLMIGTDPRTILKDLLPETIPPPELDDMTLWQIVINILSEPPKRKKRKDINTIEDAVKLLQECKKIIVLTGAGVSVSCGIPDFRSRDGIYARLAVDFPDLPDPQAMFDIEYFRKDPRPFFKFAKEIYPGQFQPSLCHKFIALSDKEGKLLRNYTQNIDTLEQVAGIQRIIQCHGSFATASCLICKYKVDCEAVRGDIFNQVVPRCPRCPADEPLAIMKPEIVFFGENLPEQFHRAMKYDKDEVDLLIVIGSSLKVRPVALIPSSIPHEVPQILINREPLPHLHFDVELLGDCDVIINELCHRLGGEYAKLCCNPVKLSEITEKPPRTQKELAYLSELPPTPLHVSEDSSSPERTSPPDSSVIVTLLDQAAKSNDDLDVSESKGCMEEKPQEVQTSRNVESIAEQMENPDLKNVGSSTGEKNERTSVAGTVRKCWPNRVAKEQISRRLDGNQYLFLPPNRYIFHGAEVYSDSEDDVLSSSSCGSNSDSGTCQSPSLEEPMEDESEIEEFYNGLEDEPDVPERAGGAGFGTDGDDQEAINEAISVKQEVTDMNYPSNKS
Assay: Trp mass spectrometry assay (SIRT1 activation)
Format: biochemical
Settings: Trp peptide substrate; for Tryp AVG EC1.5 (μM): concentration of test compound that results in 150% activation of SIRT1; for Emax: percent maximum fold activation of SIRT1, read-out: Tryp % Fold Act
Method in brief: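 N-His-tagged SIRT1 (10 nM), expressed in E. coli, was incubated with 0.5 μM Ac-RHKK(Ac)W-NH2 peptide and 120 μM NAD+ for 25 min at 25 °C in HEPES pH 7.5 with […]. The reaction was stopped with formic acid and O-acetyl-ADP-ribose or deacetylated peptide was quantified by mass spectrometry. Results are given as EC1.5 and percent maximal activation relative to DMSO control.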

Row | SMILES | Tryp AVG EC1.5 (μM) | Emax [%]
1 | COc1cc(NC(=O)N2c3nc(-c4cccc(C(F)(F)F)n4)ccc3N3CC[C@H]2C3)ncn1 [Example 339] | B (EC1.5 1-25 μM) | ≥ 150
2 | O=C(Nc1ccc(F)cn1)N1c2nc(-c3cccc(C(F)(F)F)n3)ccc2N2CC[C@H]1C2 [Example 340] | B (EC1.5 1-25 μM) | ≥ 150
3 | N#Cc1cc(-c2ccc3c(n2)N(C(=O)Nc2ccccn2)[C@H]2CCN3C2)ccc1F [Example 341] | A (EC1.5<1 μM) | ≥ 150
4 | COc1ccc(-c2ccc3c(n2)N(C(=O)Nc2ccccn2)[C@H]2CCN3C2)cn1 [Example 342] | B (EC1.5 1-25 μM) | ≥ 150
5 | CN(C)Cc1cccc(-c2ccc3c(n2)N(C(=O)Nc2ccccn2)[C@H]2CCN3C2)c1 [Example 343] | B (EC1.5 1-25 μM) | ≥ 150
6 | O=C(Nc1ccccn1)N1c2nc(-c3cc(F)cc(F)c3)ccc2N2CC[C@H]1C2 [Example 344] | A (EC1.5<1 μM) | ≥ 150
7 | CN(C)c1ccc(-c2ccc3c(n2)N(C(=O)Nc2ccccn2)[C@H]2CCN3C2)cn1 [Example 345] | B (EC1.5 1-25 μM) | ≥ 150
8 | COc1cncc(-c2ccc3c(n2)N(C(=O)Nc2ccccn2)[C@H]2CCN3C2)c1 [Example 346] | B (EC1.5 1-25 μM) | ≥ 150
9 | O=C(Nc1ccccn1)N1c2nc(-c3ccc(-c4nnn[nH]4)cc3)ccc2N2CC[C@H]1C2 [Example 347] | A (EC1.5<1 μM) | ≥ 150
10 | N#Cc1cccc(-c2ccc3c(n2)N(C(=O)Nc2ccccn2)[C@H]2CCCN3C2)c1 [Example 348] | A (EC1.5<1 μM) | ≥ 150
11 | Cn1cc(-c2ccc3c(n2)N(C(=O)Nc2ccccn2)[C@H]2CCN3C2)cn1 [Example 349] | B (EC1.5 1-25 μM) | ≥ 150
12 | N#Cc1cccc(-c2ccc3c(n2)N(C(=O)Nc2cccnc2)[C@H]2CCCN3C2)c1 [Example 350] | A (EC1.5<1 μM) | ≥ 150
13 | N#Cc1cccc(-c2ccc3c(n2)N(C(=O)Nc2cnccn2)[C@H]2CCCN3C2)c1 [Example 351] | A (EC1.5<1 μM) | ≥ 150
14 | N#Cc1cccc(-c2ccc3c(n2)N(C(=O)Nc2ccncn2)[C@H]2CCCN3C2)c1 [Example 352] | A (EC1.5<1 μM) | ≥ 150
15 | N#Cc1cccc(-c2ccc3c(n2)N(C(=O)Nc2cncc(F)c2)[C@H]2CCCN3C2)c1 [Example 353] | A (EC1.5<1 μM) | ≥ 150
16 | O=C(Nc1ccccn1)N1c2nc(-c3cccc(CC(O)CO)c3)ccc2N2CC[C@H]1C2 (stereo partly shown) [Example 354] | A (EC1.5<1 μM) | ≥ 150
17 | COc1cc(NC(=O)N2c3nc(-c4cccc(CC(O)CO)c4)ccc3N3CC[C@H]2C3)ncn1 (stereo partly shown) [Example 355] | B (EC1.5 1-25 μM) | ≥ 150
18 | O=C(Nc1ccc(F)cn1)N1c2nc(-c3cccc(CC(O)CO)c3)ccc2N2CC[C@H]1C2 (stereo partly shown) [Example 356] | A (EC1.5<1 μM) | ≥ 150
19 | O=C(Nc1ccncc1F)N1c2nc(-c3cccc(CC(O)CO)c3)ccc2N2CC[C@H]1C2 (stereo partly shown) [Example 357] | B (EC1.5 1-25 μM) | ≥ 150
20 | COc1cc(NC(=O)N2c3nc(-c4ccnc(F)c4)ccc3N3CC[C@H]2C3)ncn1 [Example 358] | C (EC1.5>25 μM) | < 150
21 | O=C(Nc1ccc(F)cn1)N1c2nc(N3CCCC(C(F)(F)F)C3)ccc2N2CCC[C@H]1C2 (stereo partly shown) [Example 359] | A (EC1.5<1 μM) | ≥ 150
22 | O=C(Nc1ccncc1)N1c2nc(N3CCCC(C(F)(F)F)C3)ccc2N2CCC[C@H]1C2 (stereo partly shown) [Example 360] | A (EC1.5<1 μM) | ≥ 150
23 | O=C(Nc1cc(O)ncn1)N1c2nc(N3CCCC(C(F)(F)F)C3)ccc2N2CCC[C@H]1C2 (stereo partly shown) [Example 361] | A (EC1.5<1 μM) | ≥ 150
